Data: patent publication US10881634B2, “Method for treatment or prevention of a disease associated with a decrease in bone mass and method of improving bone architecture and bio mechanical strength of bone” (HUGHES BIOTECHNOLOGY CO., LTD, priority 2017, dated 2021)

What was measured:
[1] = Weight changes in ovariectomized rat model; type: in vivo, Wistar rats; conditions: ovariectomized rats; for effect on weight gain caused by estrogen deficiency: 12 weeks
Method: 12-week-old female Wistar rats were used. All of experimental rats were purchased from BioLASCO Taiwan Co., Ltd. The rats were housed in the Experimental Animal Center of Taipei Medical University. The animal room was maintained under temperature of 21-24° C., relative humidity of 30-70%, and 12 hours of automatic light for alternating dark and bright. During the experimental periods, the animals were given adequate drinking water and fed with standard feed. The feeding and surgery were in accordance with the regulations of the Institutional Animal Care and Use Committee (IACUC) of Taipei Medical University.
(§1) For ovariectomy rats, bilateral ovariectomy surgery was conducted at 12-week-old under anesthesia with Zoletil 50 (Tiletamine 20-40 mg/kg+Zolazepam 5-10 mg/kg) and Rompun, following the FDA Guidelines and Animal Models for Osteoporosis. For sham surgery rats, set as control group, the surgery performed surgical incision without removing the ovaries was also conducted at 12-week-old under anesthesia with Zoletil 50 (Tiletamine 20-40 mg/kg+Zolazepam 5-10 mg/kg) and Rompun. After ovariectomy surgery, 24 rats of ovariectomy group were randomly divided into 4 groups, namely, 6 rats in each group. After 2 weeks of surgery, the rats were oral administered once a day with different samples based on their groups. The rats were weighed once a week as the basis for the dose of administration for 12 weeks and the weight data were recorded. Finally, when sacrificed, the ovarian of the rats were checked to determine whether the ovariectomy surgery was successful or not, wherein the data of failed ovariectomy rat(s) would be eliminated.
(§2) Total 30 rats were grouped into following 5 groups (i.e., “SHAM”, “OVX”, “G7P”, “G7P2X”, “E2”). • a. SHAM group: sham surgery rats, set as control group, fed with sterile water by oral gavage; • b. OVX group: ovariectomized rats, set as negative control, fed with sterile water by oral gavage; • c. G7P group: ovariectomized rats, administered with 5.33 mg/kg B.W. G7P solution once per day by oral gavage, wherein the dosage was equal to 40 mg/day of the amount of soy isoflavones for adult; • d. G7P2X group: ovariectomized rats, administered with 10.66 mg/kg B.W. G7P once per day by oral gavage, wherein the dosage was equal to 80 mg/day of the amount of soy isoflavones for adult; • e. E2 group: ovariectomized rats, set as positive control, administered with 200 μg/kg B.W. […] once per day by tube feeding.

ovariectomized rats [2] = test: Bone index test (in vivo micro-CT scan of caput femoris); set-up: species or system Wistar rats; conditions: for BMD level compared with OVX group: week 12
Method: as §1, §2
At week 0, 3, 6, 9 and 12 of the experimental period, in vivo micro-CT scan were conducted on the caput femoris of right leg of the rats by animal CT scanner system Sky Scan 1176 to obtain the 3D tomography image. The obtained 3D tomography images were further analyzed by software so as to obtain bone index data. The data include bone mineral density (BMD) and bone volume-to-total volume ratio (bone volume/total volume, BV/TV, %).

ovariectomized rats [3] = test: Bone mechanics analysis (three-point bending test of femur); type: in vivo, Wistar rats; conditions: week 12
Method: as §1, §2
The bio-mechanical strength of femur was measured using bio-mechanical testing instrument (RT1-TST, Royalty Tec.Ins. Ltd) after removing the soft tissue of left leg. First, the length of the femur was measured by the electronic vernier and the mid-position of the femur was set so as to be the scale standard which must be aligned when compressing the vertical physical strength of the femur by the bone stress meter. The femur was kept moist with physiological saline and fixed on a test bench for a three-point bending test. The motor revolution speed of the bone stress meter was set at 0.05 mm/sec. After the femur was compressed to fracture, the parameters of the bone mechanics analysis obtained by the test system were as follows:
a. maximal load: the force converted from the maximum weight of the record, the unit is Newton;
b. maximal energy: the area integratal under the record curve, the unit is mJ;
d. Young's modulus or elastic modulus (E).

ovariectomized rats [4] = test: Histopathological observation (H&E staining, caput femoris); type: in vivo, Wistar rats
Method: as §1
Total 30 rats were grouped into following 5 groups (i.e., “SHAM”, “OVX”, “G7P”, “G7P2X”, “E2”). • a. SHAM group: sham surgery rats, set as control group, fed with sterile water by oral gavage; • b. OVX group: ovariectomized rats, set as negative control, fed with sterile water by oral gavage; • c. […]

ovarietomized rats = conditions: 3.2 mg/kg B.W. daily oral supplement, 5 months; cited from earlier work
[5] = G7P 5.33 mg/kg B.W. once per day oral (G7P group)
[6] = G7P 10.66 mg/kg B.W. once per day oral (G7P2X group)
[7] = G7P 5.33 mg/kg B.W. once per day oral gavage (G7P group)
[8] = G7P 10.66 mg/kg B.W. once per day oral gavage (G7P2X group)
[9] = estradiol 200 μg/kg B.W. once per day oral (E2 group)
[10] = estradiol 200 μg/kg B.W. once per day by tube feeding (E2 group)

O=c1c(-c2ccc(O)cc2)coc2cc(OP(=O)(O)O)cc(O)c12 [G7P, genistein 7-O-phophate]
effect on weight gain caused by estrogen deficiency [1, 5]: did not reverse the weight gain
body weight ([1]; G7P 5.33 mg/kg B.W. once per day oral (G7P group), week 12 after surgery): ~400 g
effect on weight gain caused by estrogen deficiency [1, 6]: did not reverse the weight gain
BV/TV compared with OVX group (ovariectomized rats [2]; [5]): higher than that of the OVX group with statistical significance
trabecular structure in μCT 3D imaging (ovariectomized rats [2]; [5]): much integrated than that of the OVX group
BMD level compared with OVX group (ovariectomized rats [2]; [5]): significantly higher than that of the OVX group
BV/TV compared with OVX group (ovariectomized rats [2]; [6]): higher than that of the OVX group with statistical significance
trabecular structure in μCT 3D imaging (ovariectomized rats [2]; [6]): much integrated than that of the OVX group
BMD level compared with OVX group (ovariectomized rats [2]; [6]): significantly higher than that of the OVX group
Elastic modulus (ovariectomized rats [3]; [7]): 21.8 ± 2.6 MPa
Max Energy (ovariectomized rats [3]; [7]): 74.4 ± 6.8 mJ
Stiffness (ovariectomized rats [3]; [7]): 326.2 ± 43.2 N/mm
applied load (ovariectomized rats [3]; [7]): 186.5 ± 5.9 N
Elastic modulus (ovariectomized rats [3]; [8]): 22.8 ± 6.1 MPa
Max Energy (ovariectomized rats [3]; [8]): 82.7 ± 22.8 mJ
Stiffness (ovariectomized rats [3]; [8]): 319.1 ± 6.1 N/mm
applied load (ovariectomized rats [3]; [8]): 197.5 ± 20.6 N
bone mineral retention and trabecular bone density in H&E slide (ovariectomized rats [4]; [5]): good
bone mineral retention and trabecular bone density in H&E slide (ovariectomized rats [4]; [6]): good

O=c1c(-c2ccc(O)cc2)coc2cc(O)cc(O)c12 [genistein]
effect on bone mass, density or architecture (ovarietomized rats): had no effect on bone mass, density or architecture

C[C@]12CC[C@@H]3c4ccc(O)cc4CC[C@H]3[C@@H]1CC[C@@H]2O [E2, 1743 estradiol, reference compound]
effect on weight gain caused by estrogen deficiency [1, 9]: could reduce the weight gain
BV/TV compared with OVX group (ovariectomized rats [2]; [9]): higher than that of the OVX group with statistical significance
trabecular structure in μCT 3D imaging (ovariectomized rats [2]; [9]): a wide but loose trabecular distribution
BMD level compared with OVX group (ovariectomized rats [2]; [9]): significantly higher than that of the OVX group
Max Energy (ovariectomized rats [3]; [10]): 76.1 ± 20.3 mJ
Stiffness (ovariectomized rats [3]; [10]): 307.6 ± 55.1 N/mm
applied load (ovariectomized rats [3]; [10]): 176.8 ± 12.1 N
